Laboratory results: US8765211B2, “Method for coating metal implants with therapeutic mixtures” (Enbio Limited, priority 2009, dated 2014)

How the values were obtained:
[1] = Elution of vancomycin from beaded Ti coupons with zero, one or two PLGA layers in PBS buffer (UV/VIS); format: physicochemical; conditions: beaded Ti coupon
Protocol: A 25 mm diameter coupon with a sintered titanium beaded surface was used as the test substrate. […] Vancomycin was dissolved in water to produce a solution of 0.5 g/25 ml. 0.5 ml of this solution was then applied in droplet form to the surface of each sample coupon and allowed to dry in an oven at 40° C. This technique was repeated three times to give a total loading of 1.5 ml of the vancomycin solution per coupon.
PLGA polymer (2.5 g) was dissolved in 50 mL of dichloromethane solvent. The polymer solution was added to the surface of the drug loaded coupons in a dropwise fashion similar to that employed to deploy the drug. Again, three applications of 0.5 ml were applied to produce a single layer of polymer with sufficient time being allowed between each application to allow the solvent to evaporate.
To investigate the effect of polymer coating thickness, a second set of three PLGA solutions were applied to form a batch of samples with 6 applications of polymer in total. This produced a sample with twice the coating thickness and is therefore herein referred to as having two layers of polymer.
All samples were then treated with an abrasive blasting process as described in WO2008/033867. The equipment platform was a Comco Standard Lathe. Two nozzles were employed to deliver an abrasive and a dopant respectively. The abrasive chosen was MCD 106 microns (Himed, NY, USA) and the dopant was hydroxyapatite (25/60 microns, SAI, France). The abrasive was delivered at a pressure of 75 psi and the dopant was delivered at 90 psi. The substrate was moved at a speed of 13 mm/sec relative to the nozzles.
Drug elution studies were carried out in PBS buffer solution and drug concentrations were determined using an Agilent 8453 UV/VIS spectrophotometer system. The elution profile of samples with zero, one and two layers of polymer were determined over 48 hours and the % vancomycin elution was determined. […] In the absence of any polymer coating, the drug had effectively eluted form the surface within 30 minutes and no further elution was detected.

[2] = Elution of gentamicin sulphate from PLGA-coated, abrasively blasted porous beaded titanium hip stem in phosphate saline buffer (Abbott TDx/FLX); format: physicochemical; conditions: Summit hip stem with Porocoat finish, GS plus PLGA overcoat, blasted with MCD/HA; immersed in 300 ml phosphate saline buffer
Protocol: This example describes the modification of an implantable titanium hip stem containing a porous beaded surface. A Summit hip stem (DePuy) with a Porocoat finish was used as the substrate. The active chosen for study was gentamicin sulphate (GS).
The stem was first coated GS by dissolving 0.6 g of GS in 10 ml of water and applying the solution to the surface drop wise. In total, 0.1575 g of GS was added to the surface. Once dry, a polymer overcoat was applied by adding a solution of PLGA (3.5 g of PLGA in 10 ml of dichloromethane) dropwise and allowing to dry The coated hip stem was then abrasively blasted as per WO2008/033867 to remove the outer layer of polymer. Blasting was carried out in a Comco Standard Lathe operating at a pressure of 100 psi. MCD abrasive grit (Supplied by Himed, New York) was used as the abrasive and HA (SAI, France) was used as the dopant. Each powder was fed in a separate stream at the surface at a pressure of 100 psi and with an offset distance of 15-25 mm. The blast device was moved over the surface at a speed of approximately 100 mm/sec.
Elution of the drug from the surface was evaluated by immersing the entire hip stem in 300 ml of phosphate saline buffer and measuring drug concentration in solution using an Abbott TDx/FLX system. […]

Row | Compound | time by which the drug had effectively eluted from the surface ([1]; no polymer coating (zero layers)) | time to complete elution ([1]; single layer of polymer (3 applications of PLGA)) | elution duration ([1]; twice the thickness of polymer (6 applications of PLGA, two layers)) | duration of gentamicin release [2] | time in which the bulk of the drug is released [2]
1 | CN[C@H](CC(C)C)C(=O)N[C@H]1C(=O)N[C@@H](CC(N)=O)C(=O)N[C@H]2C(=O)N[C@H]3C(=O)N[C@H](C(=O)N[C@H](C(=O)O)c4cc(O)cc(O)c4-c4cc3ccc4O)[C@H](O)c3ccc(c(Cl)c3)Oc3cc2cc(c3O[C@@H]2O[C@H](CO)[C@@H](O)[C@H](O)[C@H]2O[C@H]2C[C@](C)(N)[C@H](O)[C@H](C)O2)Oc2ccc(cc2Cl)[C@H]1O [vancomycin] | ≤ 30 min | up to 10 hours | 24 h |  | 
2 | gentamicin sulphate |  |  |  | 4 days | within the first day
